The source of these data is PubChem BioAssay AID588808 (Broad Institute, 2011).

As usually defined, the AC50 is the concentration at which the activity in the assay is half-maximal.

Active and inactive are the calls of the source.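 The calls were made as follows: active = Aurora B inhibition with potency within ten times the top dose, in every repeat test; inconclusive = repeat tests disagree in their calls; inactive = every repeat test inactive.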

Chain of Aurora kinase B (Homo sapiens) (Q96GD4 whole entry, looked up): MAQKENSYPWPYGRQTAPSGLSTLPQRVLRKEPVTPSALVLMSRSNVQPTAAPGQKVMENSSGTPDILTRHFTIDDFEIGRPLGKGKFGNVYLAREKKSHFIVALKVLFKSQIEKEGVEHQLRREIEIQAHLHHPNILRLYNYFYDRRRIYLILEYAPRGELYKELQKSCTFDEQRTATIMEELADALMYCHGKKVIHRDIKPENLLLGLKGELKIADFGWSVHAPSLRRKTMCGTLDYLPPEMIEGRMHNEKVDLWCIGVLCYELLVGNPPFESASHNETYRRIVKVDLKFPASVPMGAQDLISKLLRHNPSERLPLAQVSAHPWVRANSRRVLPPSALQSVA

One assay has as its target Aurora kinase B (Homo sapiens) (UniProt Q96GD4). In words: Aurora B kinase inhibition counter-screen, dose response, counter-screen for STK33 inhibitor project, biochemical, scintillation, dry powder, set 3 (AID 588808). Particulars: Recombinant Aurora B, 33P-ATP filter-binding scintillation.
As for `CC(C)c1ccc(NC(=O)c2cccs2)c(-c2nc3ccccc3[nH]c2=O)c1`, the AC50 is 7.79 µM.

The assay is the same for the next values; noted with them: Recombinant Aurora B, 33P-ATP filter-binding scintillation; at 10 µM (top of the series).
`O=C(Nc1cc(Cl)ccc1-c1nc2ccccc2[nH]c1=O)c1cccs1`: the “activity change, negative = inhibition” value is “inactive”. Same read-out and setting: for `O=C(Nc1ccccc1-c1nc2ccccc2[nH]c1=O)c1cccc(Cl)c1` the value was “inactive”; for `O=C(Nc1ccc(Cl)cc1-c1nc2ccccc2[nH]c1=O)c1cccs1`, “inactive”; for `O=C(Nc1cc(F)ccc1-c1nc2ccccc2[nH]c1=O)c1cccs1`, “inactive”. Same read-out and setting: for `O=C(Nc1ccc(OC(F)(F)F)cc1-c1nc2ccccc2[nH]c1=O)c1cccs1` the value was “inactive”; for `O=C(Nc1ccccc1-c1nc2ccccc2[nH]c1=O)c1cccnc1`, “inactive”.

Consider `O=C(Nc1ccccc1-c1nc2ccccc2[nH]c1=O)c1ccc(F)cc1`, for which the “activity change, negative = inhibition” value is “inactive”. Regarding `O=C(Nc1ccccc1-c1nc2ccccc2[nH]c1=O)c1cccs1`, the “activity change, negative = inhibition” value was “inactive”. On the same count and under the same terms, with `COc1ccc(NC(=O)c2cccs2)c(-c2nc3ccccc3[nH]c2=O)c1` the entry was “inactive”; with `O=C(Nc1ccc(F)cc1-c1nc2ccccc2[nH]c1=O)c1cccs1`, “inactive”. Same read-out and setting: with `O=C(Nc1ccccc1-c1nc2ccccc2[nH]c1=O)c1ccccn1` the entry was “inactive”.

Regarding `COc1ccc(C(=O)Nc2ccccc2-c2nc3ccccc3[nH]c2=O)cc1`, the “activity change, negative = inhibition” value is “inactive”.
